Assay results published in patent publication US10584117B2, “1,3,4-oxadiazole amide derivative compound as histone deacetylase 6 inhibitor, and pharmaceutical composition containing same” (Chong Kun Dang Pharmaceutical Corp., priority 2015, dated 2020).

Target: T1, human recombinant HDAC6 (Homo sapiens, UniProt Q9UBN7)
T1 construct: purchased Calbiochem 382180
T1 sequence (Q9UBN7 1-1215): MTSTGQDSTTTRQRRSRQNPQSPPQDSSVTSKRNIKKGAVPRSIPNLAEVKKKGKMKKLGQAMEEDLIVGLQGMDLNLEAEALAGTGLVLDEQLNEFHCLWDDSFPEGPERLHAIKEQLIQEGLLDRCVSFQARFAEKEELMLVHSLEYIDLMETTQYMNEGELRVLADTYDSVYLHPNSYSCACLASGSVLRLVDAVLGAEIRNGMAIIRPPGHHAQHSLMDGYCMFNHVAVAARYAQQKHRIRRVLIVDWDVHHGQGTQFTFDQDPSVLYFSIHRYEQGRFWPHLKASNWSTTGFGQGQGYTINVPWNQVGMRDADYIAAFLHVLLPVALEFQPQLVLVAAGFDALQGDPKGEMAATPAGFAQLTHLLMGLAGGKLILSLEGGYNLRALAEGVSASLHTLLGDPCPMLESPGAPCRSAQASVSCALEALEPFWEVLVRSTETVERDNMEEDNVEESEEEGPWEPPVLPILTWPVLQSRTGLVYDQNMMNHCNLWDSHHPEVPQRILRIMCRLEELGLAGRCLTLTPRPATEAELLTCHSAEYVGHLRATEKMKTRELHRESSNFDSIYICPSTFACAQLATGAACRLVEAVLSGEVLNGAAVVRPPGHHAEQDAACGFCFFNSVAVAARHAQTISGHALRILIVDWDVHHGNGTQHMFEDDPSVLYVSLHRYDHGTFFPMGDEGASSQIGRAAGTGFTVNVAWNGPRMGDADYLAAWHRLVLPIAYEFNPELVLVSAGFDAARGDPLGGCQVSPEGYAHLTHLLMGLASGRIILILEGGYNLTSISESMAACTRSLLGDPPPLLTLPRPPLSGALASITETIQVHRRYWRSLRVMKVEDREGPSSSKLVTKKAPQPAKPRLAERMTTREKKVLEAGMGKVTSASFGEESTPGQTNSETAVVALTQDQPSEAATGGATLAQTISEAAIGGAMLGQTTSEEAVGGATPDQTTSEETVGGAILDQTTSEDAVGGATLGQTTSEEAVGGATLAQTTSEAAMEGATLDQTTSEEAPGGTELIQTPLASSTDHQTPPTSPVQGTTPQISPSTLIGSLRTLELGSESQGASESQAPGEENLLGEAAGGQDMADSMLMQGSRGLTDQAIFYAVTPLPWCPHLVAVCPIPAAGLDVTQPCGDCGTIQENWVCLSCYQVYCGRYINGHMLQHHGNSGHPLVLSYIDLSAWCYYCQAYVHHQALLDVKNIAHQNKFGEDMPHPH
Assay: HDAC enzyme activity inhibition assay (HDAC6, fluorimetric kit)
Assay type: biochemical
Settings: for HDAC6 selectivity (fold): HDAC6 versus HDAC1; for IC50: same protocol as the HDAC1 test
How it was run: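 Fluorimetric kit assay: human recombinant HDAC1 or HDAC6 (0.3 μg) reacted with 10 μM Fluor de Lys-SIRT1 substrate and 5-fold serially diluted compound for 60 minutes at 30° C, followed by 30 minutes of developer. Fluorescence was read at Ex 360/Em 460, and IC50 values were calculated from it.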

SMILES | HDAC6 selectivity (fold) | IC50
CC(=O)N1CC(C(=O)N(Cc2ccc(-c3nnc(C(F)(F)F)o3)cc2)c2ccccc2)C1 [Compound 11187, N1-acetyl-N-phenyl-N-(4-(5-(trifluoromethyl)-1,3,4-oxadiazol-2-yl)benzyl)azetidine-3-carboxamide] | 144 fold | 189 nM
Cl.O=C(C1CNC1)N(Cc1ccc(-c2nnc(C(F)(F)F)o2)cc1)c1ccccc1 [Compound 11136, N-phenyl-N-(4-(5-(trifluoromethyl)-1,3,4-oxadiazol-2-yl)benzyl)azetidine-3-carboxamide hydrochloride] | 493 fold | 203 nM
O=C(C1CCS(=O)(=O)CC1)N(Cc1ccc(-c2nnc(C(F)F)o2)cc1F)c1ccc(F)c(Cl)c1 [Compound 11603, N-(3-chloro-4-fluorophenyl)-N-(4-(5-(difluoromethyl)-1,3,4-oxadiazol-2-yl)-2-fluorobenzyl)tetrahydro-2H-thiopyran-4-carboxamide 1,1-dioxide] | 685 fold | 146 nM
CC(C)C(=O)N1CCC(C(=O)N(Cc2ccc(-c3nnc(C(F)(F)F)o3)cc2)c2ccccc2)CC1 [Compound 11163, 1-isobutyryl-N-phenyl-N-(4-(5-(trifluoromethyl)-1,3,4-oxadiazol-2-yl)benzyl)piperidine-4-carboxamide] | 452 fold | 221 nM
O=C(C1CCN(C2COC2)CC1)N(Cc1ccc(-c2nnc(C(F)F)o2)cc1F)c1ccccc1 [Compound 11622, N-(4-(5-(difluoromethyl)-1,3,4-oxadiazol-2-yl)-2-fluorobenzyl)-1-(oxetan-3-yl)-N-phenylpiperidine-4-carboxamide] | 714 fold | 140 nM
O=C(C1CCS(=O)(=O)CC1)N(Cc1ccc(-c2nnc(C(F)(F)F)o2)cc1F)c1ccc(F)c(Cl)c1 [Compound 11602, N-(3-chloro-4-fluorophenyl)-N-(2-fluoro-4-(5-(trifluoromethyl)-1,3,4-oxadiazol-2-yl)benzyl)tetrahydro-2H-thiopyran-4-carboxamide 1,1-dioxide] | 263 fold | 380 nM
O=C(c1ccccc1)N(Cc1ccc(-c2nnc(C(F)(F)F)o2)cc1)c1ccccc1 [Compound 11107, N-phenyl-N-(4-(5-(trifluoromethyl)-1,3,4-oxadiazol-2-yl)benzyl)benzamide] | 196 fold | 509 nM
O=C(C1CCCCC1)N(Cc1ccc(-c2nnc(C(F)(F)F)o2)cc1)c1ccccc1 [Compound 11106, N-phenyl-N-(4-(5-(trifluoromethyl)-1,3,4-oxadiazol-2-yl)benzyl)cyclohexanecarboxamide] | 77 fold | 1300 nM
CS(=O)(=O)N1CCN(CC(=O)N(Cc2ccc(-c3nnc(C(F)F)o3)cc2F)c2ccc(F)c(Cl)c2)CC1 [Compound 11613, N-(3-chloro-4-fluorophenyl)-N-(4-(5-(difluoromethyl)-1,3,4-oxadiazol-2-yl)-2-fluorobenzyl)-2-(4-(methylsulfonyl)piperazin-1-yl)acetamide] | 676 fold | 148 nM

Further lines, results first:

HDAC6 selectivity (fold) | IC50 | SMILES
2041 fold | 49 nM | CC(=O)N(Cc1ccc(-c2nnc(C(F)F)o2)cc1F)c1cccc(F)c1 [Compound 11339, N-(4-(5-(difluoromethyl)-1,3,4-oxadiazol-2-yl)-2-fluorobenzyl)-N-(3-fluorophenyl)acetamide]
2500 fold | 40 nM | CN1CCC(C(=O)N(Cc2ccc(-c3nnc(C(F)F)o3)cn2)c2cccc(F)c2)CC1 [Compound 11418, N-((5-(5-(difluoromethyl)-1,3,4-oxadiazol-2-yl)pyridin-2-yl)methyl)-N-(3-fluorophenyl)-1-methylpiperidine-4-carboxamide]
2222 fold | 45 nM | CN1CC(C(=O)N(Cc2ccc(-c3nnc(C(F)F)o3)cc2F)c2ccccc2)C1 [Compound 11238, N-(4-(5-(difluoromethyl)-1,3,4-oxadiazol-2-yl)-2-fluorobenzyl)-1-methyl-N-phenylazetidine-3-carboxamide]
2500 fold | 40 nM | CN1CCC(C(=O)N(Cc2ccc(-c3nnc(C(F)F)o3)cn2)c2ccccc2)CC1 [Compound 11414, N-((5-(5-(difluoromethyl)-1,3,4-oxadiazol-2-yl)pyridin-2-yl)methyl)-1-methyl-N-phenylpipetidine-4-carboxamide]
917 fold | 109 nM | CCC(=O)N1CCC(C(=O)N(Cc2ccc(-c3nnc(C(F)(F)F)o3)cc2F)c2ccccc2)CC1 [Compound 11204, N-(2-fluoro-4-(5-(trifluoromethyl)-1,3,4-oxadiazol-2-yl)benzyl)-N-phenyl-1-propionylpiperidine-4-carboxamide]
2128 fold | 47 nM | CS(=O)(=O)N1CC(C(=O)N(Cc2ccc(-c3nnc(C(F)F)o3)cc2F)c2ccccc2)C1 [Compound 11245, N-(4-(5-(difluoromethyl)-1,3,4-oxadiazol-2-yl)-2-fluorobenzyl)-1-(methylsulfonyl)-N-phenylazetidine-3-carboxamide]
2000 fold | 50 nM | O=C(c1ccncc1)N(Cc1ccc(-c2nnc(C(F)F)o2)cc1F)c1ccccc1 [Compound 11110, N-(4-(5-(difluoromethyl)-1,3,4-oxadiazol-2-yl)-2-fluorobenzyl)-N-phenylisonicotinamide]
1042 fold | 96 nM | O=C(CN1CC[C@H](O)C1)N(Cc1ccc(-c2nnc(C(F)F)o2)cc1F)c1ccc(F)c(Cl)c1 [Compound 11536, (S)-N-(3-chloro-4-fluorophenyl)-N-(4-(5-(difluoromethyl)-1,3,4-oxadiazol-2-yl)-2-fluorobenzyl)-2-(3-hydroxypyrrolidin-1-yl)acetamide]
1190 fold | 84 nM | O=C(CN1CCN(C2COC2)CC1)N(Cc1ccc(-c2nnc(C(F)F)o2)cc1F)c1ccc(F)c(Cl)c1 [Compound 11614, N-(3-chloro-4-fluorophenyl)-N-(4-(5-(difluoromethyl)-1,3,4-oxadiazol-2-yl)-2-fluorobenzyl)-2-(4-(oxetan-3-yl)piperazin-1-yl)acetamide]
1087 fold | 92 nM | CC(=O)N(Cc1ccc(-c2nnc(C(F)(F)F)o2)cc1F)c1cccc(F)c1 [Compound 11340, N-(2-fluoro-4-(5-(trifluoromethyl)-1,3,4-oxadiazol-2-yl)benzyl)-N-(3-fluorophenyl)acetamide]
1754 fold | 57 nM | CCN1CC(C(=O)N(Cc2ccc(-c3nnc(C(F)F)o3)cc2F)c2cccc(F)c2)C1 [Compound 11326, N-(4-(5-(difluoromethyl)-1,3,4-oxadiazol-2-yl)-2-fluorobenzyl)-1-ethyl-N-(3-fluorophenyl)azetidine-3-carboxamide]
735 fold | 136 nM | CC(C)N1CCC(C(=O)N(Cc2ccc(-c3nnc(C(F)(F)F)o3)cc2F)c2ccccc2)CC1 [Compound 11202, N-(2-fluoro-4-(5-(trifluoromethyl)-1,3,4-oxadiazol-2-yl)benzyl)-1-isopropyl-N-phenylpiperidine-4-carboxamide]
